Laboratory results published in patent US7064139B2, “Method for treating retroviral infections” (Uniroyal Chemical Company, Inc., priority 2001, dated 2006).
≈ marks a conversion by molar mass, not a printed value. Where two headings read alike, the source gives them in different places.

Key:
[1] = test system: HIV-1 (IIIB); test: microbe, parasite or virus in culture; assay type: cell-based; conditions: for HIV-1 % Protection: protection of CEM cells against virus-induced cytopathicity at the concentration in the previous column; for EC50: Human immunodeficiency virus 1, IIIB, CCRF-CEM, read-out: EC50 (ug/ml) HIV-1
In short: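 Human T-lymphoblast CEM cells at roughly 300,000 cells per ml were infected with about 100 CCID50 of HIV-1 (IIIB). Then 100 μl of the infected suspension went into 200 μl microtiter wells holding 100 μl of 5-fold serial compound dilutions. Inhibition of syncytium formation was scored microscopically on day four post infection, and protection against virus-induced cytopathicity was recorded.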

[2] = test system: Davis strain CMV; test: Reduction of CMV-induced cytopathicity in HEL cells; assay type: cell-based, human cytomegalovirus (HCMV); conditions: for Antiviral % Inhibition Davis strain CMV: estimate of percent protection at the concentration in the previous column; for EC50: read-out: Antiviral EC50 (ug/ml) Davis strain CMV
In short: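 Confluent HEL cells were infected with 100 PFU/well CMV for 1–2 h, then washed and kept in MEM with 2% FCS and test compound. EC50 is the concentration cutting virus-induced cytopathicity by 50% versus untreated control at day 7. Where cytotoxicity interfered, percent protection at the stated concentration is given.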

[3] = test system: HIV-2 (ROD); test: Inhibition of HIV-2 syncytium formation in CEM cells; assay type: cell-based; conditions: for HIV-2 % Protection: protection of CEM cells against virus-induced cytopathicity at the concentration in the previous column; for EC50: Human immunodeficiency virus 2, CCRF-CEM, read-out: EC50 (ug/ml) HIV-2
In short: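 Human T-lymphoblast CEM cells, suspended at roughly 300,000 cells per ml of culture medium, were infected with about 100 CCID50 of HIV-2 (ROD). Aliquots of 100 μl of infected cells were placed in 200 μl microtiter wells holding 100 μl of serial 5-fold compound dilutions, and syncytium formation was scored microscopically four days after infection.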

[4] = CEM cells, syncytium formation, day four post infection
[5] = HEL cells, virus-induced cytopathicity after seven days
[6] = Human betaherpesvirus 5, 168 h, HEL cells, virus-induced cytopathicity after seven days
[7] = Human betaherpesvirus 5, HEL, 168 h

Row | SMILES | EC50 (ug/ml) HIV-1 [1, 4] | HIV-1 % Protection [1] [%] | Antiviral EC50 (ug/ml) Davis strain CMV [2, 5] [µg/mL] | EC50 (ug/ml) HIV-2 [3, 4] | HIV-2 % Protection [3] [%] | EC50 [1, 4] [µg/mL] | Antiviral % Inhibition Davis strain CMV ([2]; HEL cells) [%] | EC50 [2, 6] [µg/mL] | EC50 [3, 4] [µg/mL] | EC50 [1] [µg/mL] | EC50 [2, 7] [µg/mL] | EC50 [3] [µg/mL]
1 | COc1ccc(CSc2cc(CC(C)C)cc[n+]2[O-])cc1 [Compound 134] | >20 µg/mL | 0.0 | 50.0 | >100.0 µg/mL | 0.0 |  |  |  |  |  |  | 
2 | O=[N+]([O-])c1cc(CS(=O)(=O)c2cccc[n+]2[O-])ccc1Cl [Compound 64, 2-[[(4-chloro-3-nitrophenyl)methyl]sulfonyl]-pyridine-1-oxide] |  |  |  |  |  | 1.5 (≈ 4.56 µM) | 10.0 | > 5 | 1.9 (≈ 5.78 µM) |  |  | 
3 | CC(C)c1ccc(C(C)C)c(CS(=O)(=O)c2cccc[n+]2[O-])c1 [Compound 35] | ≧4 ug/ml | 37.5 | 3.2 | ≧4 ug/ml | 37.5 |  |  |  |  |  |  | 
4 | COc1ccc([N+](=O)[O-])cc1CS(=O)(=O)c1cccc[n+]1[O-] [Compound 20] | 7.00 µg/mL (≈ 21.6 µM) |  | 13.0 | 13.0 µg/mL (≈ 40.1 µM) |  |  |  |  |  |  |  | 
5 | [O-][n+]1cccc(Cl)c1[S+]([O-])Cc1ccccc1 (stereo not shown) [Compound 136] | 1.50 µg/mL (≈ 5.6 µM) |  | 4.7 | >4.0 µg/mL | 0.0 |  |  |  |  |  |  | 
6 | O=S(=O)(Cc1ccc(Cl)c(Cl)c1)c1cccc[n+]1[O-] [Compound 37, 2-(3,4-dichlorobenzylsulfonyl)-pyridine-N-oxide] |  |  |  |  |  | 1 (≈ 3.14 µM) | 30.0 | > 5 | 1.3 (≈ 4.09 µM) |  |  | 
7 | Cc1ccc(CS(=O)(=O)c2cccc[n+]2[O-])c(C)c1 [Compound 52] | 6.00 µg/mL (≈ 21.6 µM) |  | 12.0 | 6.5 µg/mL (≈ 23.4 µM) |  |  |  |  |  |  |  | 
8 | Cc1ccc(C)c(C[S+]([O-])c2cccc[n+]2[O-])c1 (stereo not shown) [Compound 3] | 7.20 µg/mL (≈ 27.5 µM) |  | 36.0 | ≧20 ug/ml | 37.5 |  |  |  |  |  |  | 
9 | Cc1ccc(C)c(CSc2ccccn2)c1 [Compound 148, 2-((2,5-dimethylphenyl)methylthio)pyridine] |  |  |  |  |  |  |  |  |  | > 20 | 0.4 (≈ 1.74 µM) | > 20
10 | Cc1ccc(C)c(C(Cl)S(=O)(=O)c2cc(C)cc[n+]2[O-])c1 (stereo not shown) [Compound 74, 2-[(2,5-dimethylphenyl)chloromethylsulfonyl]-4-methylpyridine-1-oxide] |  |  |  |  | 0.0 | 0.42 (≈ 1.29 µM) |  | 34.5 (≈ 106 µM) | > 100 |  |  | 
11 | Cc1ccc[n+]([O-])c1S(=O)(=O)Cc1ccccc1 [Compound 80] | 15.00 µg/mL (≈ 57 µM) |  | >20 | >20.0 µg/mL | 0.0 |  | 0.0 |  |  |  |  | 
12 | Cc1ccc(C)c(C[S+]([O-])c2cccc[n+]2[O-])c1C (stereo not shown) [Compound 97, 2-(2,3,6-Trimethylphenylmethylsulfinyl)pyridine N-oxide] |  | 0.0 |  |  | 0.0 | > 0.8 |  | 11 (≈ 39.9 µM) | > 0.8 |  |  | 
13 | O=S(=O)(Cc1cccs1)c1cccc[n+]1[O-] [Compound 8] | >20 µg/mL | 0.0 | 11.0 | >20 µg/mL | 0.0 |  |  |  |  |  |  | 
14 | Cc1ccc(C)c(CSc2c(Cl)ccc[n+]2[O-])c1 [Compound 133, 3-Chloro-2-[[(2,5-dimethylphenyl)methyl]thio]pyridine 1-oxide] |  |  |  |  | 0.0 |  |  |  |  | 0.14 (≈ 0.5 µM) | 25 (≈ 89.4 µM) | > 20
15 | [O-][n+]1cc(Cl)ccc1SCc1ccccc1 [Compound 151] | >20 µg/mL | 0.0 | >20 | >20.00 µg/mL | 0.0 |  | 20.0 |  |  |  |  | 
16 | CCc1cccc2c(C)cc(S(=O)(=O)C(C)c3ccccc3)nc12 (stereo not shown) [Compound 107, 8-ethyl-4-methyl-2-[(1-phenylethyl)sulfonyl]-quinoline] |  |  |  |  |  | 0.65 (≈ 1.91 µM) | 0.0 | > 20 | > 100 |  |  | 
17 | Cc1cc[n+]([O-])c([S+]([O-])Cc2ccc(Cl)cc2)c1 (stereo not shown) [Compound 128] | ≧4 ug/ml | 37.5 | >20 | 7.0 µg/mL (≈ 24.8 µM) |  |  | 40.0 |  |  |  |  | 
18 | Cc1ccc2ccccc2c1CS(=O)(=O)c1cccc[n+]1[O-] [Compound 43] | ≧4 ug/ml | 37.5 | >50 | ≧4 ug/ml | 37.5 |  | 20.0 |  |  |  |  | 
19 | O=S(=O)(Cc1cccc(Br)c1)c1cccc[n+]1[O-] [Compound 38] | 2.50 µg/mL (≈ 7.62 µM) |  | 5.0 | ≧4 ug/ml | 37.5 |  |  |  |  |  |  | 
20 | O=S(=O)(Cc1c(Cl)ccc(Cl)c1Cl)c1cccc[n+]1[O-] [Compound 33] | ≧4 ug/ml | 37.5 | 5.0 | ≧4 ug/ml | 37.5 |  |  |  |  |  |  | 
21 | Cc1ccc[n+]([O-])c1SCc1c(Cl)cccc1Cl [Compound 137] | >20 µg/mL | 0.0 | 28.0 | >20.00 µg/mL | 0.0 |  |  |  |  |  |  | 
22 | Cc1ccc(C(C)S(=O)(=O)c2c(C)ccc[n+]2[O-])c(C)c1 (racemic) [Compound 78] | 1.40 µg/mL (≈ 4.58 µM) |  | 10.0 | >100.0 µg/mL | 0.0 |  |  |  |  |  |  | 
23 | O=S(=O)(Cc1ccccc1Oc1ccccc1)c1cccc[n+]1[O-] [Compound 56] | 5.30 µg/mL (≈ 15.5 µM) |  | >5 | 4.7 µg/mL (≈ 13.8 µM) |  |  | 20.0 |  |  |  |  | 
24 | COc1ccc(OC)c(CS(=O)(=O)c2cccc[n+]2[O-])c1 [Compound 47] | 10.00 µg/mL (≈ 32.3 µM) |  | >50 | 35.0 µg/mL (≈ 113 µM) |  |  | 20.0 |  |  |  |  | 
25 | Cc1ccccc1CS(=O)(=O)c1cccc[n+]1[O-] [Compound 16, 2-(2-Methylphenylmethylsulfonyl)-pyridine N-oxide] |  |  |  |  |  | 11 (≈ 41.8 µM) |  | 12 (≈ 45.6 µM) | 7.5 (≈ 28.5 µM) |  |  | 
26 | O=S(=O)(c1cccc[n+]1[O-])C(Cl)c1ccccc1 (stereo not drawn) [Compound 105, 2-(alpha-phenyl-alpha-chloromethylsulfonyl)pyridine-N-oxide] | 16.00 µg/mL (≈ 56.4 µM) |  | 23.0 | 2.5 µg/mL (≈ 8.81 µM) |  |  |  |  |  |  |  | 
27 | Cc1ccc(C)c(C(C)S(=O)(=O)c2ccc(C)c[n+]2[O-])c1 (stereo not shown) [Compound 110, 2-[1-(2,5-Dimethylphenyl)ethylsulfonyl]-5-methylpyridine N-oxide] |  |  |  |  | 0.0 | 5.5 (≈ 18 µM) |  | 50 (≈ 164 µM) | > 100 |  |  | 
